Drawing on patent publication US12263171B2, “7-, 8-, and 10-substituted amino triazolo quinazoline derivatives as adenosine receptor antagonists, pharmaceutical compositions and their use” (Merck Sharp & Dohme LLC, priority 2018, dated 2025), this text covers IC50 for 32 compounds.

The structures appear in SMILES notation.

Assay [1] addresses human A2b adenosine receptor (Homo sapiens (Human), UniProt P29275). As to the kind of experiment: A2b radioligand filtration binding assay (tritiated proprietary A2b antagonist, HEK293 membranes). Conditions: unstarred values: radioligand binding. The method in brief: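 Displacement of a tritiated proprietary A2b antagonist from membranes of HEK293 cells recombinantly expressing human A2b receptor, measured by filtration and scintillation counting. Percent effect was normalized to total and non-specific binding and fitted with a 4-parameter logistic to give IC50.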

Assay [2] deals with human A2a adenosine receptor (Homo sapiens (Human), UniProt P29274). Briefly: A2a receptor affinity radioligand binding assay ([3H] SCH58261, membranes from HEK293 or CHO cells). Conditions: unstarred values: radioligand binding. In outline:
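Displacement of tritiated SCH58261 (working dilution 4 nM) from recombinant human A2a receptor membranes (HEK293 or CHO), 60 min at room temperature in Tris pH 7.4/MgCl2 buffer after 15–30 min compound preincubation. Scintillation counting after filtration; normalized percent effect fitted 4-parameter logistic for IC50.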

Chain of human A2a adenosine receptor (P29274 whole entry): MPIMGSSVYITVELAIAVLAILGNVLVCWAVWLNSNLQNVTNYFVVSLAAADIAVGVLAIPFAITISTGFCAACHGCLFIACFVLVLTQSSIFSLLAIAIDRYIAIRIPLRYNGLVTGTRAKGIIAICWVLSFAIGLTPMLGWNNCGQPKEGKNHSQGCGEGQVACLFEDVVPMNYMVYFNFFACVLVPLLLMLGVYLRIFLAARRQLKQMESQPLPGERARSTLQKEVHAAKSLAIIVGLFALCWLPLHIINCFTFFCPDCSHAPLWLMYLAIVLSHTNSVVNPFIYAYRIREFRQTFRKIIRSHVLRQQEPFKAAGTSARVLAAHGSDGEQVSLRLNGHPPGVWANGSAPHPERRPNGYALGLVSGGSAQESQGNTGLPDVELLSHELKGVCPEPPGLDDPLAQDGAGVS
Chain of human A2b adenosine receptor (P29275 whole entry): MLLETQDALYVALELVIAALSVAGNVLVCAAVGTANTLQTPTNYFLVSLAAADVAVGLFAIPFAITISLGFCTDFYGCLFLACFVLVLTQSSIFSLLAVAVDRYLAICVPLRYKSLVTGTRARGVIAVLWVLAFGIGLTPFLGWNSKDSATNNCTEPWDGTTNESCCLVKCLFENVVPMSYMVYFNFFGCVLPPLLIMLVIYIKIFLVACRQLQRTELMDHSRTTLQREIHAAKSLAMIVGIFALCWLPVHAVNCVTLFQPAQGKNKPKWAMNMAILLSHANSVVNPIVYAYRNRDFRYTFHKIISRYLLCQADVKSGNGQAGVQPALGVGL

As for `COc1cccc2c1nc(N)n1nc([C@@H]3CCCN(c4cnn(C5(C)CC5)c4)C3)nc21` [Example 20, (R)-7-methoxy-2-(1-(1-(1-methylcyclopropyl)-1H-pyrazol-4-yl)piperidin-3-yl)-[1,2,4]triazolo[1,5-c]quinazolin-5-amine], the IC50 in assay [1] worked out at 45.1 nM; in assay [2], 0.5 nM.
On the same counts, the results for `COc1cccc2c1nc(N)n1nc([C@@H]3CCCN(c4cnn(C)c4)C3)nc21` [Example 17, (R)-7-methoxy-2-(1-(1-methyl-1H-pyrazol-4-yl)piperidin-3-yl)-[1,2,4]triazolo[1,5-c]quinazolin-5-amine] are 24.7 nM and 1 nM.
On the same counts, the results for `COc1cccc2c1nc(N)n1nc([C@@H]3CCCN(c4cnn(C5CCC5O)c4)C3)nc21` (single isomer, unassigned) [Example 60A] are 281 nM and 1.8 nM.
As to `CCn1cc(N2C[C@H](c3nc4c5cccc(OC)c5nc(N)n4n3)CC[C@H]2C)cn1` [Example 140B], the figures for the concentration for half-maximal inhibition (IC50) in assay [1] and in assay [2] were 758 nM and 1.3 nM, respectively.
On the same counts, the results for `COc1cccc2c1nc(N)n1nc(C3CCC(C)N(c4cnn(CC(C)(C)O)c4)C3)nc21` (single isomer, unassigned) [Example 143D] are 16.2 nM and 0.5 nM.
Turning to `COc1ccc2c(c1)nc(N)n1nc([C@@H]3CCCN(c4cnn([C@H](C)C(C)(C)O)c4)C3)nc21` [Example 185A], the IC50 in assay [1] is 98.1 nM; in assay [2], 0.8 nM.
In the case of `COc1cccc2c1nc(N)n1nc(C3CCC(C)N(c4cnn(C5CC5)c4)C3)nc21` (single isomer, unassigned) [Example 141C], the values for the IC50 in assay [1] and in assay [2] were 12 nM and 1 nM, respectively.
Consider `COc1cccc2c1nc(N)n1nc([C@@H]3CCCN(c4ccc(F)cn4)C3)nc21` [Example 115, (R)-2-(1-(5-fluoropyridin-2-yl)piperidin-3-yl)-7-methoxy-[1,2,4]triazolo[1,5-c]quinazolin-5-amine], for which the IC50 in assay [1] was 59.1 nM; in assay [2], 1.2 nM.
The corresponding values for `COc1cccc2c1nc(N)n1nc([C@@H]3CCCN(c4ccc(=O)n(C(F)F)c4)C3)nc21` [Example 92, (R)-5-(3-(5-amino-7-methoxy-[1,2,4]triazolo[1,5-c]quinazolin-2-yl)piperidin-1-yl)-1-(difluoromethyl)pyridin-2(1H)-one] are 196 nM and 0.7 nM.
As to `COc1cccc2c1nc(N)n1nc([C@H]3CCC4CCC3N4c3cnn(C)c3)nc21` (mixture of isomers) [Example 130A], the IC50 in assay [1] amounted to 7020 nM; in assay [2] it was 5.8 nM.
On the same counts, the results for `COc1cccc2c1nc(N)n1nc([C@@H]3CCO[C@@H](c4cnn(C)c4)C3)nc21` [Example 139B] are 1910 nM and 3.2 nM.
On the same counts, the results for `COc1cccc2c1nc(N)n1nc([C@@H]3CCCN(c4cc(C(F)(F)F)c(=O)n(C)c4)C3)nc21` [Example 99, (R)-5-(3-(5-amino-7-methoxy-[1,2,4]triazolo[1,5-c]quinazolin-2-yl)piperidin-1-yl)-1-methyl-3-(trifluoromethyl)pyridin-2(1H)-one] are 98.4 nM and 0.6 nM.
Consider `COc1ccc2c(c1)nc(N)n1nc([C@@H]3CCCN(c4ncn(CC(C)(C)O)n4)C3)nc21` [Example 194, (R)-1-(3-(3-(5-amino-8-methoxy-[1,2,4]triazolo[1,5-c]quinazolin-2-yl)piperidin-1-yl)-1H-1,2,4-triazol-1-yl)-2-methylpropan-2-ol], for which the values for the IC50 in assay [1] and in assay [2] were 528 nM and 6.7 nM, respectively.
With `COc1ccc2c(c1)nc(N)n1nc([C@@H]3CC[C@H](C)N(c4cnn(C5CCC[C@@H]5O)c4)C3)nc21` (single isomer, unassigned) [Example 210B], the IC50 in assay [1] was 3.2 nM; in assay [2] it was 0.1 nM.
Consider `COc1cccc2c1nc(N)n1nc([C@@H]3CCCN(c4cnn(C5CCOCC5)n4)C3)nc21` [Example 72, (R)-7-methoxy-2-(1-(2-(tetrahydro-2H-pyran-4-yl)-2H-1,2,3-triazol-4-yl)piperidin-3-yl)-[1,2,4]triazolo[1,5-c]quinazolin-5-amine], for which the values for the IC50 in assay [1] and in assay [2] were 119 nM and 0.9 nM, respectively.
The corresponding values for `COc1cccc2c1nc(N)n1nc([C@@H]3CCCN(c4ncn(C5CCOCC5)n4)C3)nc21` [Example 68, (R)-7-methoxy-2-(1-(1-(tetrahydro-2H-pyran-4-yl)-1H-1,2,4-triazol-3-yl)piperidin-3-yl)-[1,2,4]triazolo[1,5-c]quinazolin-5-amine] are 340 nM and 0.3 nM.
Turning to `COc1ccc2c(c1)nc(N)n1nc([C@@H]3CCCN(c4cnn(CC(F)(F)F)c4)C3)nc21` [Example 178, (R)-8-methoxy-2-(1-(1-(2,2,2-trifluoroethyl)-1H-pyrazol-4-yl)piperidin-3-yl)-[1,2,4]triazolo[1,5-c]quinazolin-5-amine], the figures for the IC50 in assay [1] and in assay [2] were 2.5 nM and 2.1 nM, respectively.
The corresponding values for `COc1cccc2c1nc(N)n1nc(C3CN(c4cnn(CC5(O)CCC5)c4)CC(F)(F)C3)nc21` (single isomer, unassigned) [Example 157B, (R or S)-1-((4-(5-(5-amino-7-methoxy-[1,2,4]triazolo[1,5-c]quinazolin-2-yl)-3,3-difluoropiperidin-1-yl)-1H-pyrazol-1-yl)methyl)cyclobutan-1-ol] are 512 nM and 0.7 nM.
On the same counts, the results for `COc1cccc2c1nc(N)n1nc([C@@H]3CCCN(c4cn(CC5(O)CCC5)nc4C)C3)nc21` [Example 32, (R)-1-((4-(3-(5-amino-7-methoxy-[1,2,4]triazolo[1,5-c]quinazolin-2-yl)piperidin-1-yl)-3-methyl-1H-pyrazol-1-yl)methyl)cyclobutan-1-ol] are 0.7 nM and 1.1 nM.
Consider `COc1ccc2c(c1)nc(N)n1nc([C@@H]3CCCN(c4cnn(CC5(O)CCC5)c4)C3)nc21` [Example 176], for which the half-inhibitory concentration (IC50) in assay [1] came out at 189 nM; in assay [2], 0.7 nM.
On the same counts, the results for `COc1cccc2c1nc(N)n1nc([C@@H]3CCCN(c4cn(C)nn4)C3)nc21` [Example 67, (R)-7-methoxy-2-(1-(1-methyl-1H-1,2,3-triazol-4-yl)piperidin-3-yl)-[1,2,4]triazolo[1,5-c]quinazolin-5-amine] are 2 nM and 1 nM.
In the case of `COc1cccc2c1nc(N)n1nc([C@@H]3CCCN(c4cnn(C(C)(C)CO)c4)C3)nc21` [Example 54, (R)-2-(4-(3-(5-amino-7-methoxy-[1,2,4]triazolo[1,5-c]quinazolin-2-yl)piperidin-1-yl)-1H-pyrazol-1-yl)-2-methylpropan-1-ol], the IC50 in assay [1] worked out at 16.3 nM; in assay [2] it was 0.4 nM.
On the same counts, the results for `COc1ccc2c(c1)nc(N)n1nc([C@@H]3CCCN(c4cnn([C@@H](C)C(C)(C)O)c4C)C3)nc21` [Example 189B, (S)-3-(4-((R)-3-(5-amino-8-methoxy-[1,2,4]triazolo[1,5-c]quinazolin-2-yl)piperidin-1-yl)-5-methyl-1H-pyrazol-1-yl)-2-methylbutan-2-ol] are 291 nM and 0.7 nM.
On the same counts, the results for `COc1cccc2c1nc(N)n1nc([C@@H]3CCCN(c4cnn(C(C)C(C)(C)O)c4)C3)nc21` (single isomer, unassigned) [Example 61B] are 84 nM and 0.4 nM.
The corresponding values for `Cn1cc(N2CCCC(c3nc4c5ccc(C(F)(F)F)cc5nc(N)n4n3)C2)cn1` (single isomer, unassigned) [Example 174, (R or S)-2-(1-(1-methyl-1H-pyrazol-4-yl)piperidin-3-yl)-8-(trifluoromethyl)-[1,2,4]triazolo[1,5-c]quinazolin-5-amine] are 480 nM and 44.3 nM.
`COc1cccc2c1nc(N)n1nc(C3CCC[C@@](O)(c4cnn(C)c4)C3)nc21` (mixture of isomers) [Example 134B]: the results for the IC50 in assay [1] and in assay [2] were 76.7 nM and 1 nM, respectively.
The corresponding values for `COc1cccc2c1nc(N)n1nc([C@@H]3CCCN(c4cn(C)cn4)C3)nc21` [Example 76, (R)-7-methoxy-2-(1-(1-methyl-1H-imidazol-4-yl)piperidin-3-yl)-[1,2,4]triazolo[1,5-c]quinazolin-5-amine] are 1780 nM and 3.6 nM.
As to `COc1cccc2c1nc(N)n1nc([C@@H]3CCCN(c4cncc(C(F)(F)F)n4)C3)nc21` [Example 104, (R)-7-methoxy-2-(1-(6-(trifluoromethyl)pyrazin-2-yl)piperidin-3-yl)-[1,2,4]triazolo[1,5-c]quinazolin-5-amine], the IC50 was determined as 3330 nM in assay [1] and 0.1 nM in assay [2].
On the same counts, the results for `COc1cccc2c1nc(N)n1nc([C@@H]3CCCN(c4cnn(C5CCOC5)c4)C3)nc21` (single isomer, unassigned) [Example 57A] are 70.5 nM and 0.4 nM.
On to `COc1ccc2c(c1)nc(N)n1nc([C@@H]3CCCN(c4ccc(C(C)=O)cc4)C3)nc21` [Example 193, (R)-1-(4-(3-(5-amino-8-methoxy-[1,2,4]-triazolo[1,5-c]quinazolin-2-yl)piperidin-1-yl)phenyl)ethan-1-one], for which the IC50 in assay [1] turned out to be 130 nM; in assay [2], 2.2 nM.
For the compound `COc1cccc2c1nc(N)n1nc([C@@H]3CCCN(c4nnc5n4CCNC5)C3)nc21` [Example 71, (R)-7-methoxy-2-(1-(5,6,7,8-tetrahydro-[1,2,4]triazolo[4,3-a]pyrazin-3-yl)piperidin-3-yl)-[1,2,4]triazolo[1,5-c]quinazolin-5-amine], the IC50 in assay [1] was determined as 5610 nM; in assay [2] it was 0.2 nM.
The corresponding values for `COc1cccc2c1nc(N)n1nc([C@@H]3CCCN(c4cn(C5CCOCC5)nc4C(F)F)C3)nc21` [Example 48] are 65.5 nM and 0.6 nM.

The IC50 is the concentration that gives 50% inhibition. A low value points to inhibition by little substance.
